In article PMC5992111, “Heterocyclization of polarized system: synthesis, antioxidant and anti-inflammatory 4-(pyridin-3-yl)-6-(thiophen-2-yl) pyrimidine-2-thiol derivatives” (Chemistry Central Journal, 2018):
Marks after values point to notes of the source that are not given here.

Assays:
ovine COX-1 = target: T1, ovine COX-1 (Ovis aries, UniProt P05979); test: In vitro COX-1 inhibition, colorimetric ovine COX-1/COX-2 inhibitor screening assay kit; assay type: biochemical; settings: for IC50: means of three determinations, read at 590 nm, read-out: IC 50 (µM) COX-1; for inhibitory activity against COX-1 (in words): compared with the standard drug celecoxib
T1 construct: purchased
T1 sequence (P05979 25-600): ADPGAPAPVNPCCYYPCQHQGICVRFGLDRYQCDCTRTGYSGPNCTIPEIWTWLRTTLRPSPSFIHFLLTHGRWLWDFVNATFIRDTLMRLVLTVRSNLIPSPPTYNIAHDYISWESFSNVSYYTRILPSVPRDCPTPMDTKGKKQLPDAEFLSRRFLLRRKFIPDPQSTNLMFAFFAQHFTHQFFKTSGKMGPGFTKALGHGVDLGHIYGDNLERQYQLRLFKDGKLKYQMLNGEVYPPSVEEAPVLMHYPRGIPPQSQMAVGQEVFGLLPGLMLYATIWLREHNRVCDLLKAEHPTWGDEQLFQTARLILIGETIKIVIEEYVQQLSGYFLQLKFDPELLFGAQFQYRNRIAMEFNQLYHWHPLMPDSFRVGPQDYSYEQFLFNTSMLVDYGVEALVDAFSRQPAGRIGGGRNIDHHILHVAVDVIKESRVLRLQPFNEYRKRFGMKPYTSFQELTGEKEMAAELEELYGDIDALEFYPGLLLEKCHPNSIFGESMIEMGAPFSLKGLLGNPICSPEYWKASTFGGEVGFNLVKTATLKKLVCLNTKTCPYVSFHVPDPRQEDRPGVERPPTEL

ovine COX-2 = target: T2, ovine COX-2 (Ovis aries, UniProt P79208); test: In vitro COX-2 inhibition, colorimetric ovine COX-1/COX-2 inhibitor screening assay kit; assay type: biochemical; settings: for COX-1/COX-2 selectivity index: IC50 (COX-1)/IC50 (COX-2); for IC50: means of three determinations, read at 590 nm, read-out: IC 50 (µM) COX-2; for inhibitory activity against COX-2 (in words): compared with the standard drug celecoxib
T2 construct: purchased
T2 sequence (P79208 17-603): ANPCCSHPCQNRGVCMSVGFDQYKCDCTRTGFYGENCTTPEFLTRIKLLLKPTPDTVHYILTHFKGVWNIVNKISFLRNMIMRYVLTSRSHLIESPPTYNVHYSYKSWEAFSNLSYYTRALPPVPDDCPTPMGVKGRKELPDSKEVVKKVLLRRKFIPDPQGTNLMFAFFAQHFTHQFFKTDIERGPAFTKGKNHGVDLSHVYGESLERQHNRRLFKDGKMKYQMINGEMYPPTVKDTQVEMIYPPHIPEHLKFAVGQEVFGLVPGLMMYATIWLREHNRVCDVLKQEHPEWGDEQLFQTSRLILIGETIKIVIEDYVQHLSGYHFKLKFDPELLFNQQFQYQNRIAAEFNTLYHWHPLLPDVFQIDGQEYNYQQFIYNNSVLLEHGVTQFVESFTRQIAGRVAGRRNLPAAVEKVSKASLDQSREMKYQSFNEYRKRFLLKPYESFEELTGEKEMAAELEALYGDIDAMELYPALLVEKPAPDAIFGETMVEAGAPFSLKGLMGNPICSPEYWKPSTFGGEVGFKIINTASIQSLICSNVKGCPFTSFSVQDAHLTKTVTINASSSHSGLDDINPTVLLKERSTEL

[1] = system: carrageenan induced rat paw edema; test: Carrageenan induced rat paw edema; assay type: in vivo; settings: mean ± SD
Method: Carrageenan induced rat paw edema in rats: Fifty rats were divided into ten groups (i.e., each group, five rats). The first group (control), received carboxymethyl cellulose. The second group was given diclofenac sodium as a standard anti-inflammatory drug. Groups (3–10) were orally given the newly synthesized compounds (3–6) in two dosages (5 and 10 mg/kg). Results were expressed as rat paw edema percent. One hour later after administration of tested doses, carrageenan was injected sub planter in the left hind footpad of each rat as 0.05 ml of 1% solution in sterile distilled water. Plethysmometer was used to measure paw edema volume from 0 to 4 h after carrageenan injection. Paw edema volume was compared with vehicle control group and reduction percent was calculated as the following %reduction in edema=1-Vt Vc×100 Where Vt and Vc are the edema volume in the group treated with drug and control, respectively. Results were expressed as mean ± standard deviation (SD). Differences between means were tested for significance using a one-way analysis of variance (ANOVA) followed by Duncan’s test (Table 2).

[2] = DPPH free radical scavenging assay; settings: for scavenging activity towards the DPPH radicals (in words): compared with ascorbic acid
Method: • DPPH free radical scavenging assay was determined (4). Ascorbic acid was used as reference standard antioxidant.

lipid peroxidation = test: Lipid peroxidation assay
Method: • Lipid peroxidation assay (5 and 6) was calculated as IC50 and recorded in Table 3.

[3] = 5 mg/kg.b.wt oral, 0 h after carrageenan
[4] = 5 mg/kg.b.wt oral, 1 h after carrageenan
[5] = 5 mg/kg.b.wt oral, 2 h after carrageenan
[6] = 5 mg/kg.b.wt oral, 3 h after carrageenan
[7] = 5 mg/kg.b.wt oral, 4 h after carrageenan
[8] = 10 mg/kg.b.wt oral, 0 h after carrageenan
[9] = 10 mg/kg.b.wt oral, 1 h after carrageenan
[10] = 10 mg/kg.b.wt oral, 2 h after carrageenan
[11] = 10 mg/kg.b.wt oral, 3 h after carrageenan
[12] = 10 mg/kg.b.wt oral, 4 h after carrageenan

Compound | IC50 (ovine COX-1) [µM] | COX-1/COX-2 selectivity index (ovine COX-2) | IC50 (ovine COX-2) [µM] | Inhibition percent of rat paw edema [1, 3] | Inhibition percent of rat paw edema [1, 4] | Inhibition percent of rat paw edema [1, 5] | Inhibition percent of rat paw edema [1, 6] | Inhibition percent of rat paw edema [1, 7] | Inhibition percent of rat paw edema [1, 8] | Inhibition percent of rat paw edema [1, 9] | Inhibition percent of rat paw edema [1, 10] | Inhibition percent of rat paw edema [1, 11] | Inhibition percent of rat paw edema [1, 12] | IC50 (μg/ml) for DPPH Scavenging [2] [µg/mL] | IC50 (μg/ml) for anti-lipid peroxidation (lipid peroxidation) [µg/mL] | melting point [°C] | also measured
O=C(/C=C/c1cccs1)c1cccnc1 [Compound 3, (E)-1-(pyridin-3-yl)-3-(thiophen-2-yl) prop-2-en-1-one] | 3.7 | 9.49 | 0.39 | 0.48 ± 0.027^ab % | 21.72 ± 0.79^b % | 22.79 ± 1.07^d % | 24.79 ± 0.49^c % | 28.41 ± 1.30^c % | 0.47 ± 0.04^ab % | 31.98 ± 9.35^a % | 29.93 ± 1.43^b % | 34.16 ± 0.61^b % | 41.15 ± 0.750^a % | 10.72 ± 0.54 | 16.81 ± 2.71 | 256 to 258 | scavenging activity towards the DPPH radicals (in words) [2]: higher scavenging activity towards the DPPH radicals than that of ascorbic acid
CC1=NN(c2nc(-c3cccnc3)cc(-c3cccs3)n2)C(=O)C1 [Compound 9, 3-methyl-1-(4-(pyridin-3-yl)-6-(thiophen-2-yl)pyrimidin-2-yl)-1H-pyrazol-5(4H)-one] | – | – | – | – | – | – | – | – | – | – | – | – | – | – | – | 225 to 227 | –
NNc1nc(-c2cccnc2)cc(-c2cccs2)n1 [Compound 5, 1-(4-(pyridin-3-yl)-6-(thiophen-2-yl)pyrimidin-2-yl)hydrazine] | 4.6 | 5.29 | 0.87 | 0.49 ± 0.01^a % | 11.62 ± 1.24^de % | 14.61 ± 1.81^g % | 18.41 ± 1^e % | 19.48 ± 0.89^e % | 0.48 ± 0.01^ab % | 15.41 ± 0.83^cd % | 18.83 ± 0.75^ef % | 24.19 ± 1.59^c % | 28.59 ± 2.26^c % | 14.61 ± 0.72 | 23.62 ± 2.31 | 180 to 182 | inhibitory activity against COX-1 (in words) (ovine COX-1): nearly like that of the standard drug; inhibitory activity against COX-2 (in words) (ovine COX-2): nearly like that of the standard drug
O=C1O[C@H]([C@@H](O)CO)C(O)=C1O [Ascorbic acid, reference compound] | – | – | – | – | – | – | – | – | – | – | – | – | – | 13.71 ± 0.75 | 25.72 ± 1.23 | – | –
Cc1cc(=O)oc2c1c(C)nn2-c1nc(-c2cccnc2)cc(-c2cccs2)n1 [Compound 8, 3,4-dimethyl-1-(4-(pyridin-3-yl)-6-(thiophen-2-yl)pyrimidin-2-yl)pyrano[2,3-c]pyrazol-6(1H)-one] | – | – | – | – | – | – | – | – | – | – | – | – | – | – | – | 190 to 192 | –
O=C(O)Cc1ccccc1Nc1c(Cl)cccc1Cl [Diclofenac sodium, diclofenac sodium, reference compound] | – | – | – | – | – | – | – | – | – | – | – | – | – | – | – | – | Inhibition percent of rat paw edema ([1]; standard drug, dose not given, 0 h after carrageenan): 0.49 ± 0.032^a %; Inhibition percent of rat paw edema ([1]; standard drug, dose not given, 1 h after carrageenan): 30.22 ± 1.27^a %; Inhibition percent of rat paw edema ([1]; standard drug, dose not given, 2 h after carrageenan): 33.85 ± 1.19^a %; Inhibition percent of rat paw edema ([1]; standard drug, dose not given, 3 h after carrageenan): 36.21 ± 0.93^a %; Inhibition percent of rat paw edema ([1]; standard drug, dose not given, 4 h after carrageenan): 41.10 ± 3.98^a %
N#Cc1c(-c2cccs2)cc(-c2cccnc2)oc1=O [Compound 6, 2-oxo-6-(pyridin-3-yl)-4-(thiophen-2-yl)-2H-pyran-3-carbonitrile] | 4.95 | 5.89 | 0.84 | 0.50 ± 0.02^a % | 9.61 ± 1.12^e % | 12.28 ± 1.38^h % | 17.19 ± 1.26^e % | 18.51 ± 2.26^e % | 0.49 ± 0.01^a % | 13.75 ± 1.15^de % | 17.52 ± 1.13^f % | 20.43 ± 0.65^d % | 22.39 ± 1.16^d % | 15.26 ± 0.44 | 22.67 ± 3.51 | 210 to 212 | inhibitory activity against COX-1 (in words) (ovine COX-1): nearly like that of the standard drug; inhibitory activity against COX-2 (in words) (ovine COX-2): nearly like that of the standard drug
S=c1nc(-c2cccnc2)cc(-c2cccs2)[nH]1 [Compound 4, 4-(pyridin-3-yl)-6-(thiophen-2-yl) pyrimidine-2(1H)-thione] | 4.02 | 9.13 | 0.44 | 0.46 ± 0.03^b % | 18.91 ± 1.19^bc % | 20.07 ± 1.43^e % | 21.96 ± 1.25^d % | 27.38 ± 1.68^c % | 0.49 ± 0.01^ab % | 21.43 ± 0.96^b % | 26.27 ± 49^e % | 33.13 ± 2.64^b % | 37.15 ± 0.69^b % | 12.64 ± 0.41 | 22.53 ± 3.25 | 220 to 225 | scavenging activity towards the DPPH radicals (in words) [2]: higher scavenging activity towards the DPPH radicals than that of ascorbic acid
